According to patent publication US11780849B2, “Imino sulfanone inhibitors of ENPP1” (Volastra Therapeutics, Inc., priority 2020, dated 2023):
Where two headings read alike, the source gives them in different places.

Columns and labels:
[1] = molecular target: ENPP1 on MDA-MB-231 cells (Homo sapiens (Human), UniProt P22413); assay: Assay 3: inhibition of ENPP1 hydrolysis of AMP p-nitrophenyl ester on MDA-MB-231 cells
ENPP-1 ECD = ENPP-1 ECD (Homo sapiens (Human), UniProt P22413); assay: Assay 2: inhibition of ENPP1 hydrolysis of 2′,3′-cGAMP (AMP-Glo, […] enzyme)
Experimental: Assay 2: Compared to the conditions in Assay 1, this assay has a larger dynamic range and ensures the system is under steady-state conditions by reducing the enzyme concentration in the assay.
Test compounds were plated in a 3× dilution scheme in a 384 well plate. […] AMP Detection solution (10 μL) was added to each well, the plate centrifuged and incubated for 60 min.

[2] = Assay 2 (KI), inhibition of ENPP1 hydrolysis of 2′,3′-cGAMP, no unit in Table 18 (Table 17 legend for this assay uses nM)
[3] = Assay 2 (KI), ENPP1 hydrolysis of 2′,3′-cGAMP, AMP-Glo, […] ENPP-1, 24 μM cGAMP
[4] = read-out: Assay 3 (KI, app), apparent KI from IC50 via Cheng/Prusoff, pNP-AMP […], MDA-MB-231 cells, pH 7.4, 37° C., 3 h, unit inferred
[5] = read-out: Assay 2 (KI), inhibition of ENPP1 hydrolysis of 2′,3′-cGAMP, no unit in Table 18 (Table 17 legend for this assay uses nM)
[6] = read-out: Assay 2 (KI), ENPP1 hydrolysis of 2′,3′-cGAMP, AMP-Glo, […] ENPP-1, 24 μM cGAMP

ENPP1 on MDA-MB-231 cells, sequence (P22413 whole entry, the tested form may be a part): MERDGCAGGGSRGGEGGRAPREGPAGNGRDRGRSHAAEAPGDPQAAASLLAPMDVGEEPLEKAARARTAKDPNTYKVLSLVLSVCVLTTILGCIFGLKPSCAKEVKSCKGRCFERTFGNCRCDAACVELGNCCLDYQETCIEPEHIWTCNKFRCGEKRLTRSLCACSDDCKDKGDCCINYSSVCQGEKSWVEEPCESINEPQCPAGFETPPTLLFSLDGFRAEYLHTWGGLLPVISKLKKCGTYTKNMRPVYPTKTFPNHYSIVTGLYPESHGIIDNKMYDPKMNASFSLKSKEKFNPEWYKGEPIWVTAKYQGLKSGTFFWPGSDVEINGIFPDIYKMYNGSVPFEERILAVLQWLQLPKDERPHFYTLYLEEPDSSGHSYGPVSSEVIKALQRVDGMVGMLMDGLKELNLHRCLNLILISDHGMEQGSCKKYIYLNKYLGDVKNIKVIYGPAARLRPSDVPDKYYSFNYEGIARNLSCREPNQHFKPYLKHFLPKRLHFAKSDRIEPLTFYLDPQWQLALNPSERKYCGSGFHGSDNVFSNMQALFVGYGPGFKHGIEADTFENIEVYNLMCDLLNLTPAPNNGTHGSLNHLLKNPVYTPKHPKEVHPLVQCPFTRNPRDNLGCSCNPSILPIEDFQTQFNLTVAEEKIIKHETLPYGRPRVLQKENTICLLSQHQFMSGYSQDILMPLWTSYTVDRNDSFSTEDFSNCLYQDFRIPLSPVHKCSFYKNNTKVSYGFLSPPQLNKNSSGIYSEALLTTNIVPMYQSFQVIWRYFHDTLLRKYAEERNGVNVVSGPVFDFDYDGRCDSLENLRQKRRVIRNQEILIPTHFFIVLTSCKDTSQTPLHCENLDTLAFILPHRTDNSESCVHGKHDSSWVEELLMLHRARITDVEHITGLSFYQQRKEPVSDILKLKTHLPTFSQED
ENPP-1 ECD, sequence (P22413 98-925): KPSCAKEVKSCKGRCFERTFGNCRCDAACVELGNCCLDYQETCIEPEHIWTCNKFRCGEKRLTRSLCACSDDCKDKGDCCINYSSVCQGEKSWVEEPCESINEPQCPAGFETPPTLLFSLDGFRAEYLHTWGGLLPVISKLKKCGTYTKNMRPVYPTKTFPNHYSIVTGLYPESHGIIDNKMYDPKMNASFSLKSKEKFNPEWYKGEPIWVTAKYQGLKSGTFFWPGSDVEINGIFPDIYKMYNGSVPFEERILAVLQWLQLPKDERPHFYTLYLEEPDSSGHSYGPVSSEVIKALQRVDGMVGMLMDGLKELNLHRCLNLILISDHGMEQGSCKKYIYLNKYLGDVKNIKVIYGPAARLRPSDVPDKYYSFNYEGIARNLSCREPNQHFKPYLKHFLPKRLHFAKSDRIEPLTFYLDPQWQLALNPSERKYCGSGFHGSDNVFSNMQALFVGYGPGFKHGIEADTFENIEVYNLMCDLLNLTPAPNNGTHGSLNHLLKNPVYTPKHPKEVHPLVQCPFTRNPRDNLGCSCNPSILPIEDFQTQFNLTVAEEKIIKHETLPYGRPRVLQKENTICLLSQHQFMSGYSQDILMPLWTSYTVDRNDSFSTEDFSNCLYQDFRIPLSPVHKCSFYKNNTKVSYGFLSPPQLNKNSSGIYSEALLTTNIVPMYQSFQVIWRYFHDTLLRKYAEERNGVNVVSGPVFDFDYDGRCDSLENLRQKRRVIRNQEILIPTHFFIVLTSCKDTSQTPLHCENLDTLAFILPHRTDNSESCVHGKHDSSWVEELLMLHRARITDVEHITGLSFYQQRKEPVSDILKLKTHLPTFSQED

Row | Compound | Ki [1] | Ki (ENPP-1 ECD; [2]) | Ki (ENPP-1 ECD; [3]) | Ki [1, 4] | Ki (ENPP-1 ECD; [5]) | Ki (ENPP-1 ECD; [6])
1 | COc1ccc2c(OCc3cc(S(C)(=N)=O)co3)ccnc2c1 (stereo not drawn) [Compound 170, imino(5-{[(7-methoxyquinolin-4-yl)oxy]methyl}furan-3-yl)methyl-λ^6-sulfanone] | 25 nM | 0.7 nM | – | – | – | –
2 | COc1cc2nccc(N3CCC4(CC3)CCN(S(=N)(=O)C3CC3)C4)c2cc1F (stereo not drawn) [Compound 218, {cyclopropyl[8-(6-fluoro-7-methoxyquinolin-4-yl)-2,8-diazaspiro[4.5]decan-2-yl]imino-λ^6-sulfanyl}one] | 0.69 nM | 0.022 nM | – | – | – | –
3 | COc1ccc2c(Oc3ccc(S(=N)(=O)C4CN(C(C)=O)C4)cc3)ccnc2c1 (stereo not drawn) [Compound 166, 1-[3-({4-[(7-methoxyquinolin-4-yl)oxy]phenyl}imino-λ^6-sulfanyl)azetidin-1-yl]ethan-1-one] | 230 nM | 3.1 nM | – | – | – | –
4 | COc1cc2nccc(N3CCC4(CC3)CCN(S(C)(=N)=O)C4)c2cc1C#N (stereo not drawn) [Compound 226, 4-{2-[imino(methyl)oxo-λ^6-sulfanyl]-2,8-diazaspiro[4.5]decan-8-yl}-7-methoxyquinoline-6-carbonitrile] | 43 nM | 1.2 nM | – | – | – | –
5 | COc1cc2nccc(N3CC4(CC(CS(C)(=N)=O)C4)C3)c2cc1F (stereo not drawn) [Compound 184, {[2-(6-fluoro-7-methoxyquinolin-4-yl)-2-azaspiro[3.3]heptan-6-yl]methyl}(imino)methyl-λ^6-sulfanone] | 5.5 nM | 0.13 nM | – | – | – | –
6 | COc1ccc2c(N3CCC(CCS(C)(=N)=O)CC3)c(C#N)cnc2c1 (stereo not drawn) [Compound 143, 4-(4-{2-[imino(methyl)oxo-λ6-sulfanyl]ethyl}piperidin-1-yl)-7-methoxyquinoline-3-carbonitrile] | 180 nM | 1 nM | < 3 nM | – | – | –
7 | COc1ccc2c(Oc3ccc(S(C)(=N)=O)cc3)cc(C)nc2c1 (stereo not drawn) [Compound 124, imino({4-[(7-methoxy-2-methylquinolin-4-yl)oxy]phenyl})methyl-λ^6-sulfanone] | 30 nM | 0.73 nM | < 3 nM | – | – | –
8 | COc1cccc2c(N3CCC(O)(C[S@](=N)(=O)C4CC4)CC3)ncnc12 [Compound 193b] | – | – | – | 0.36 nM | 0.012 nM | –
9 | COc1cc2nncc(N3CCC4(CC3)CCN(S(=N)(=O)C3CC3)C4)c2cc1Cl (stereo not drawn) [Compound 225, {[8-(6-chloro-7-methoxycinnolin-4-yl)-2,8-diazaspiro[4.5]decan-2-yl](cyclopropyl)imino-λ^6-sulfanyl}one] | 6.8 nM | 0.096 nM | – | – | – | –
10 | COc1cc2nccc(OCc3cccc([S@@](C)(=N)=O)c3)c2cc1F [Compound 169a] | – | – | – | > 190 nM | 15 nM | –
11 | COc1ccc2c(Oc3ccc(S(C)(=N)=O)cc3)c(C#N)cnc2c1 (stereo not drawn) [Compound 121, 4-{4-[imino(methyl)oxo-λ^6-sulfanyl]phenoxy}-7-methoxyquinoline-3-carbonitrile] | 250 nM | 4.2 nM | 3 to 300 nM | – | – | –
12 | COc1cccc2c(N3CC[C@H](C[S@@](C)(=N)=O)C3)ncnc12 [Compound 238a] | – | – | – | 260 nM | 66 nM | –
13 | COc1cc2nccc(N3CCC(CC[S@@](C)(=N)=O)CC3)c2cc1Cl [Compound 141a] | – | – | – | 28 nM | 0.26 nM | < 3 nM
14 | COc1cccc2c(N3CCC(C[S@@](C)(=N)=O)CC3)ncnc12 [Compound 146a] | – | – | – | 4.5 nM | 0.12 nM | –
15 | COc1cc2nccc(N3CCC4(CC3)CCN([S@@](C)(=N)=O)C4)c2cc1Cl [Compound 156a] | – | – | – | 1.7 nM | 0.016 nM | < 3 nM
16 | COc1ccc2c(OCc3cccc(S(C)(=N)=O)c3)ncnc2c1 (stereo not drawn) [Compound 174, imino(3-{[(7-methoxyquinazolin-4-yl)oxy]methyl}phenyl)methyl-λ^6-sulfanone] | – | – | – | 240 nM | 5.2 nM | –
17 | COc1ccc2c(Oc3ccc(S(=N)(=O)CC4CC4)cc3)ccnc2c1 (stereo not drawn) [Compound 123, (cyclopropylmethyl)(imino){4-[(7-methoxyquinolin-4-yl)oxy]phenyl}-λ^6-sulfanone] | 60 nM | 1.5 nM | < 3 nM | – | – | –
18 | COc1cc2nccc(N3CCC4(CC3)CCN([S@](C)(=N)=O)C4)c2cc1OC [Compound 208b] | – | – | – | 0.16 nM | 0.0078 nM | –
19 | COc1cc2ncc(C#N)c(N3CCC4(CC3)CCN(S(C)(=N)=O)C4)c2cc1F (stereo not drawn) [Compound 210, 6-fluoro-4-{2-[imino(methyl)oxo-λ^6-sulfanyl]-2,8-diazaspiro[4.5]decan-8-yl}-7-methoxyquinoline-3-carbonitrile] | 2.5 nM | 0.024 nM | – | – | – | –
20 | COc1cc2nccc(N3CC4(CC(C[S@](C)(=N)=O)C4)C3)c2cc1F [Compound 184b] | – | – | – | 58 nM | 2.5 nM | –
21 | COc1cccc2c(N3CCC(CS(=N)(=O)C4CC4)CC3)ncnc12 (stereo not drawn) [Compound 190, cyclopropyl(imino){[1-(8-methoxyquinazolin-4-yl)piperidin-4-yl]methyl}-λ^6-sulfanone] | 7.3 nM | 0.19 nM | – | – | – | –

Row | Compound | Ki [1] | Ki (ENPP-1 ECD; [2]) | Ki (ENPP-1 ECD; [3]) | Ki [1, 4] | Ki (ENPP-1 ECD; [5]) | Ki (ENPP-1 ECD; [6])
22 | COc1ccc2c(O[C@@H](C)c3cccc(S(C)(=N)=O)c3)ccnc2c1 (stereo partly drawn) [Compound 245, imino({3-[(1S)-1-[(7-methoxyquinolin-4-yl)oxy]ethyl]phenyl})methyl-λ^6-sulfanone] | 5.7 nM | 0.23 nM | – | – | – | –
23 | COc1ccc2c(Oc3ccc(S(C)(=N)=O)cc3)c(C)cnc2c1 (stereo not drawn) [Compound 168, imino({4-[(7-methoxy-3-methylquinolin-4-yl)oxy]phenyl})methyl-λ^6-sulfanone] | 40 nM | 0.84 nM | – | – | – | –
24 | COc1cc2nccc(OCc3cccc(S(=N)(=O)C4CC4)c3)c2cc1F (stereo not drawn) [Compound 244, [cyclopropyl(3-{[(6-fluoro-7-methoxyquinolin-4-yl)oxy]methyl}phenyl)imino-λ^6-sulfanyl]one] | 0.55 nM | 0.018 nM | – | – | – | –
25 | COc1cc2nccc(N3CCC4(CC3)CCN([S@@](=N)(=O)C3CC3)C4)c2cc1F [Compound 218a] | – | – | – | 0.29 nM | 0.0078 nM | –
26 | COc1cc2nccc(OCc3cccc(S(C)(=N)=O)c3)c2cc1F (stereo not drawn) [Compound 169, (3-{[(6-fluoro-7-methoxyquinolin-4-yl)oxy]methyl}phenyl)(imino)methyl-λ^6-sulfanone] | 1.5 nM | 0.051 nM | – | – | – | –
27 | COc1cc2nnc(C)c(N3CCC4(CC3)CCN(S(C)(=N)=O)C4)c2cc1Cl (stereo not drawn) [Compound 220, [8-(6-chloro-7-methoxy-3-methylcinnolin-4-yl)-2,8-diazaspiro[4.5]decan-2-yl](imino)methyl-λ^6-sulfanone] | 11 nM | 0.25 nM | – | – | – | –
28 | COc1cccc2c(N3CCC4(C3)CN([S@@](C)(=N)=O)C4)ncnc12 [Compound 223b] | – | – | – | 460 nM | 19 nM | –
29 | COc1ccc2c(OCc3cc(F)cc([S@](C)(=N)=O)c3)ccnc2c1 [Compound 177b] | – | – | – | 0.48 nM | 0.0085 nM | –
30 | COc1cc2nccc(N3CCC4(CC3)CCN([S@@](C)(=N)=O)C4)c2cc1OC [Compound 208a] | – | – | – | 55 nM | 1.1 nM | –
31 | COc1cc2nccc(N3CCC4(CC3)CCN(S(C)(=N)=O)C4)c2cc1F (stereo not drawn) [Compound 205, [8-(6-fluoro-7-methoxyquinolin-4-yl)-2,8-diazaspiro[4.5]decan-2-yl](imino)methyl-λ^6-sulfanone] | 2.2 nM | 0.032 nM | – | – | – | –
32 | COc1cc2ncnc(OCc3cccc(S(C)(=N)=O)c3)c2cc1OC (stereo not drawn) [Compound 173, (3-{[(6,7-dimethoxyquinazolin-4-yl)oxy]methyl}phenyl)(imino)methyl-λ^6-sulfanone] | 9.2 nM | 0.17 nM | – | – | – | –
33 | COc1cc2nncc(N3CCC4(CC3)CCN(S(C)(=N)=O)C4)c2cc1OC (stereo not drawn) [Compound 211, [8-(6,7-dimethoxycinnolin-4-yl)-2,8-diazaspiro[4.5]decan-2-yl](imino)methyl-λ^6-sulfanone] | 0.97 nM | 0.022 nM | – | – | – | –
34 | COc1cc2nccc(OCc3cccc([S@](C)(=N)=O)c3)c2cc1F [Compound 169b] | – | – | – | 1.5 nM | 0.018 nM | –
35 | COc1cc2nccc(N3CC4(CC(C[S@@](C)(=N)=O)C4)C3)c2cc1F [Compound 184a] | – | – | – | 1.7 nM | 0.1 nM | –
36 | CCS(=N)(=O)N1CCC2(CCN(c3ncnc4cc(OC)c(F)cc34)CC2)C1 (stereo not drawn) [Compound 221, ethyl[8-(6-fluoro-7-methoxyquinazolin-4-yl)-2,8-diazaspiro[4.5]decan-2-yl]imino-λ^6-sulfanone] | 4.6 nM | 0.12 nM | – | – | – | –
37 | COc1cc2nccc(OC[C@H]3CCN([S@@](C)(=N)=O)C3)c2cc1F [Compound 230b] | – | – | – | 6.6 nM | 0.38 nM | –
38 | COc1cc2ncnc(-c3ccc4c(c3)CN([S@](C)(=N)=O)CC4)c2cc1OC [Compound 37b] | – | – | – | 21 nM | 0.28 nM | < 3 nM
39 | COc1cc2nccc(N3CC4(CC(CS(C)(=N)=O)C4)C3)c2cc1OC (stereo not drawn) [Compound 186, {[2-(6,7-dimethoxyquinolin-4-yl)-2-azaspiro[3.3]heptan-6-yl]methyl}(imino)methyl-λ^6-sulfanone] | 17 nM | 0.38 nM | – | – | – | –
40 | COc1cc2nccc(-c3ccc4c(c3)CN([S@@](C)(=N)=O)CC4)c2cc1OC [Compound 161a] | – | – | – | 5.2 nM | 0.015 nM | < 3 nM
41 | CCS(=N)(=O)N1CCC2(CCN(c3ncnc4cc(OC)c(OC)cc34)CC2)C1 (stereo not drawn) [Compound 159, [8-(6,7-dimethoxyquinazolin-4-yl)-2,8-diazaspiro[4.5]decan-2-yl](ethyl)imino-λ^6-sulfanone] | 3.6 nM | 0.025 nM | < 3 nM | – | – | –
42 | COc1cc2ncnc(N3CCC4(CC3)CCN([S@](=N)(=O)C3CC3)C4)c2cc1OC [Compound 160a] | – | – | – | 0.22 nM | 0.007 nM | –
